Counter-ions that a name gives are not always drawn. Like-named read-outs stand apart in the source and are kept apart here.

These results are taken from publication PMC7216583 (Parasites & Vectors, 2020).

The test system of one series is MEK1/2. Details: method as in S-inhibitor. To be noted: ref S-inhibitor; cited from earlier work.
In series [1] the test system is Toxoplasma gondii RH-2F tachyzoites. The series can be described thus: microbe, parasite or virus in culture. The following applies: 72 h.
The test system is the same in series [2]. To be noted: preliminary screen, mean.
The next series addresses phosphodiesterase. Details: method as in S-inhibitor. To be noted: ref S-inhibitor; cited from earlier work.
A further series deals with CDK1/cyclin B. More on the design: method as in S-inhibitor. To be noted: ref S-inhibitor; cited from earlier work.
The next series deals with CDK2/cyclin E. Details: method as in S-inhibitor. To be noted: ref S-inhibitor; cited from earlier work.
The next series has as its system ERβ. More on the design: method as in S-inhibitor. To be noted: ref S-inhibitor; read-out: IC50, ERβ binding; cited from earlier work.
A further series deals with ERα. To be noted: read-out: IC50, ERα binding; ref S-inhibitor; cited from earlier work.
Another series in a line: in vitro. To be noted: human; for viability at 72 h: Host viability (%) mean.
Another series concerns the target 5-HT2 receptor. More on the design: method as in S-inhibitor. The following applies: ref S-inhibitor; read-out: Ki, serotonin 5-HT2; cited from earlier work.
A further series addresses dopamine D2. Details: method as in S-inhibitor. The following applies: ref S-inhibitor; cited from earlier work.
For the next series, the system named is Abl. More on the design: method as in library vendor description. To be noted: ref library vendor description; cited from earlier work.
The subject of another series is EGFR. Details: method as in library vendor description. To be noted: ref library vendor description; cited from earlier work.
The test system of the next series is ErbB2. More on the design: method as in library vendor description. The following applies: ref library vendor description; cited from earlier work.
In series [3] the target is serotonin-norepinephrine reuptake. The following applies: read-out: Ki, serotonin-norepinephrine reuptake inhibitor; ref S-inhibitor; cited from earlier work.
A further series deals with Flt4. Details: method as in S-inhibitor. To be noted: ref S-inhibitor; cited from earlier work.
For the next series, the system named is HIV-1 IIIB. Details: method as in S-inhibitor. The following applies: ref S-inhibitor; cited from earlier work.
A further series deals with HIV-2 EHO. More on the design: method as in S-inhibitor. To be noted: ref S-inhibitor; cited from earlier work.
A further series deals with HIV-2 ROD. Details: method as in S-inhibitor. The following applies: ref S-inhibitor; cited from earlier work.
In the next series the target is reverse transcriptase. The following applies: read-out: IC50, reverse transcriptase; ref S-inhibitor; cited from earlier work.
The subject of another series is S6K1. Details: method as in S-inhibitor. To be noted: ref S-inhibitor; cited from earlier work.
For a further series, the system named is MSK1. Details: method as in S-inhibitor. To be noted: ref S-inhibitor; cited from earlier work.
The test system of another series is PKA. Details: method as in S-inhibitor. The following applies: ref S-inhibitor; cited from earlier work.
Another series concerns PKBα. Details: method as in S-inhibitor. The following applies: ref S-inhibitor; cited from earlier work.
In a further series the test system is MAPKAP-K1b. Details: method as in S-inhibitor. The following applies: ref S-inhibitor; cited from earlier work.
In a further series the test system is If. Details: method as in S-inhibitor. To be noted: ref S-inhibitor; cited from earlier work.
The test system of series [4] is smoothened. Details: method as in S-inhibitor. The following applies: mouse; ref S-inhibitor; cited from earlier work.
Series [5] deals with smoothened. More on the design: method as in S-inhibitor. To be noted: human; ref S-inhibitor; cited from earlier work.
Another series relates to CDK4. More on the design: method as in S-inhibitor. The following applies: ref S-inhibitor; cited from earlier work.
Another series relates to CDK6. More on the design: method as in S-inhibitor. The following applies: ref S-inhibitor; cited from earlier work.
For a further series, the system named is FAK. The following applies: read-out: IC50, FAK; ref S-inhibitor; cited from earlier work.
Another series concerns the target D2S receptor. To be noted: read-out: Ki, D2S receptor; ref S-inhibitor; cited from earlier work.
The target in the next series is D2L receptor. The following applies: read-out: Ki, D2L receptor; ref S-inhibitor; cited from earlier work.
The next series concerns the target D3 receptor. The following applies: read-out: Ki, D3 receptor; ref S-inhibitor; cited from earlier work.
In the next series the target is D4 receptor. The following applies: read-out: Ki, D4 receptor; ref S-inhibitor; cited from earlier work.
Series [6] deals with voltage-gated sodium channels. More on the design: method as in S-inhibitor. To be noted: ref S-inhibitor; cited from earlier work.
The next series relates to WT PFV IN. More on the design: method as in S-inhibitor. To be noted: ref S-inhibitor; cited from earlier work.
The subject of another series is S217Q PFV IN. Details: method as in S-inhibitor. The following applies: ref S-inhibitor; cited from earlier work.
A further series has as its system PDE4. More on the design: method as in S-inhibitor. The following applies: ref S-inhibitor; cited from earlier work.
Another series has as its target γ-secretase. More on the design: method as in S-inhibitor. The following applies: ref S-inhibitor, cited from earlier work.
The subject of a further series is Notch signaling. More on the design: method as in S-inhibitor. The following applies: ref S-inhibitor; cited from earlier work.
The target in another series is (Na,K)-ATPase. Details: method as in S-inhibitor. To be noted: one value printed for both enzymes; ref S-inhibitor; cited from earlier work.
The next series concerns the target alkaline phosphatase. The following applies: read-out: IC50, alkaline phosphatase; one value printed for both enzymes; ref S-inhibitor; cited from earlier work.
The subject of another series is GSK-3β. Details: method as in S-inhibitor. To be noted: ref S-inhibitor; cited from earlier work.
Series [7] deals with cleavage of Tyr from Met-enkephalin. More on the design: method as in S-inhibitor. The following applies: ref S-inhibitor; read-out: IC50, inhibition of cleavage of Tyr from Met-enkephalin; cited from earlier work.
Where [8] appears, read: read-out: Parasite inhibition (%) mean, preliminary screen, mean.
[9] abbreviates: read-out: Parasite inhibition (%) mean.

Take `Cc1cc(C(=O)NOCCO)c(Nc2ccc(I)cc2F)n(C)c1=O` [AZD8330]: in the series with MEK1/2, the IC50 is 7 nM. In addition, the inhibition of growth at 5 µM in series [1] (setting [8]) is -18.8%.

Consider `Cn1c(=O)c2[nH]cnc2n(C)c1=O.Cn1c(=O)c2[nH]cnc2n(C)c1=O.NCCN` [Aminophylline (Truphylline)], for which, in [2], the “Parasite inhibition (%) mean” value is listed as 0.8%. The IC50 at phosphodiesterase is 120000 nM.

On to `CCCCOc1c(C(=O)c2c(F)cc(C)cc2F)c[nH]c2nncc1-2` [BMS-265246], for which the IC50 in the series on CDK1/cyclin B was 6 nM; in the series with CDK2/cyclin E, 9 nM. Also, in [1] (setting [8]), the inhibition of growth at 5 µM was 7.3%.

As for `Cc1c(-c2ccc(O)cc2)n(Cc2ccc(OCCN3CCCCCC3)cc2)c2ccc(O)cc12` [Bazedoxifene HCl], the IC50 with ERβ was […]; with ERα, […]. Further, the inhibition of growth at 5 µM in series [1] (setting [8]) is -12.8%.

The compound `CCN1CCN(c2cc(-c3ccc(F)cc3)c3c(n2)CCCCCC3)CC1` [Blonanserin (Lonasen)] returned a viability at 72 h in the series “in vitro” of 88.3%. Also, the Ki on 5-HT2 receptor was 3.98 nM; on dopamine D2, 14.8 nM. Moreover, the inhibition of growth at 5 µM in [1] (setting [8]) is 82.1%.

Take `COc1cc(Nc2c(C#N)cnc3cc(OCCCN4CCN(C)CC4)c(OC)cc23)c(Cl)cc1Cl` [Bosutinib (SKI-606)]: the IC50 with Abl is […]. Moreover, the inhibition of growth at 5 µM in series [1] (setting [8]) came to 22.4%.

In the case of `C=CC(=O)Nc1cc2c(Nc3ccc(F)c(Cl)c3)ncnc2cc1OCCCN1CCOCC1` [CI-1033 (Canertinib)], the results for the IC50 with EGFR and in the series on ErbB2 were […] and […], respectively. For the same compound, the inhibition of growth at 5 µM in series [1] (setting [8]) is -5.8%.

With `CNCC[C@H](Oc1cccc2ccccc12)c1cccs1` [Duloxetine HCl (Cymbalta)], in [3], the Ki is 4.6 nM. Further, the inhibition of growth at 5 µM in series [1] (setting [9]) was 30.9%.

Turning to `Cc1cc(Nc2cc(N3CCN(C)CC3)nc(/C=C/c3ccccc3)n2)n[nH]1` [ENMD-2076 L-(+)-Tartaric acid], in “in vitro” (preliminary screen, mean), the viability at 72 h was 35.5%. The IC50 with Flt4 is 15.9 nM.

In the case of `COc1cc2c(cc1Cc1cccc(Cl)c1F)c(=O)c(C(=O)O)cn2[C@H](CO)C(C)C` [Elvitegravir (GS-9137)], the results for the IC50 in the series with HIV-1 IIIB, in the series with HIV-2 EHO and in the series with HIV-2 ROD were 0.7 nM, 2.8 nM and 1.4 nM, respectively. Also, the inhibition of growth at 5 µM in series [1] (setting [8]) worked out at 0.7%.

As to `Nc1nc(=O)n([C@@H]2CS[C@H](CO)O2)cc1F` [Emtricitabine (Emtriva)], the IC50 at reverse transcriptase is 27700 nM. In addition, the inhibition of growth at 5 µM in [1] (setting [9]) stood at 0.4%.

In turn, `O=S(=O)(NCCNC/C=C/c1ccc(Br)cc1)c1cccc2cnccc12` [H 89 2HCl, reference compound] came in with a viability at 72 h, 5 µM in “in vitro” (Host viability (%) Mean ± SD) of 89.4 ± 4.6%. Further, the viability at 72 h in the series “in vitro” turned out to be 89.4%. Further, the IC50 in the series with S6K1 is 80 nM; with MSK1 it was 120 nM; in the series with PKA it was 135 nM; in the series with PKBα it was […]; in the series on MAPKAP-K1b, 2800 nM. Also, in [1] (read-out: Parasite inhibition (%) Mean ± SD), the inhibition at 5 µM stood at 83.5 ± 1.8%.

On to `COc1cc2c(cc1OC)CC(=O)N(CCCN(C)C[C@@H]1Cc3cc(OC)c(OC)cc31)CC2` [Ivabradine HCl (Procoralan)], for which, in the series with If, the IC50 is 2900 nM. For the same compound, in series [1] (setting [8]), the inhibition of growth at 5 µM amounted to 0.6%.

As for `Cc1c(C(=O)Nc2ccc(N3C[C@@H](C)O[C@@H](C)C3)nc2)cccc1-c1ccc(OC(F)(F)F)cc1` [LDE225 (NVP-LDE225, Erismodegib)], the IC50 in the series with smoothened [4] was 1.3 nM; in the series on smoothened [5], 2.5 nM. In addition, the inhibition of growth at 5 µM in series [1] (setting [8]) was -3.8%.

Consider `CC(=O)c1c(C)c2cnc(Nc3ccc(N4CCNCC4)cn3)nc2n(C2CCCC2)c1=O.O=S(=O)(O)CCO` [PD 0332991 (Palbociclib) Isethionate], for which the “Parasite inhibition (%) mean” value in series [2] is 2.6%. The values for the IC50 with CDK4 and with CDK6 were […] and 16 nM, respectively.

Regarding `CS(=O)(=O)c1cccc(CNc2nc(Nc3ccc4c(c3)CCC(=O)N4)ncc2C(F)(F)F)c1` [PF 573228], in the series on FAK, the IC50 is 4 nM. Further, the inhibition of growth at 5 µM in [1] (setting [8]) was found to be 5%.

With `CCCN[C@H]1CCc2nc(N)sc2C1` [Pramipexole 2HCl monohydrate], the Ki was […] at D2S receptor, 2.2 nM on D2L receptor, 0.5 nM at D3 receptor and 5.1 nM at D4 receptor. Besides, in series [1] (setting [9]), the inhibition of growth at 5 µM was -9.5%.

For the compound `CCCOc1ccc(C(=O)OCCN(CC)CC)cc1N` [Proparacaine HCl], the “ED50, voltage-gated sodium channels” value in series [6] was “Proparacaine HCl is a voltage-gated sodium channels antagonist with ED50 of 3.4 mM”. Further, the inhibition of growth at 5 µM in series [1] (setting [8]) is 2.4%.

For `Cc1nnc(C(=O)NC(C)(C)c2nc(C(=O)NCc3ccc(F)cc3)c(O)c(=O)n2C)o1` [Raltegravir (MK-0518)], the IC50 is 90 nM in the series on WT PFV IN and 40 nM in the series on S217Q PFV IN. Moreover, the inhibition of growth at 5 µM in series [1] (setting [8]) came out at 0.8%.

As to `O=C(Nc1c(Cl)cncc1Cl)c1ccc(OC(F)F)c(OCC2CC2)c1` [Roflumilast (Daxas)], the IC50 in the series on PDE4 is 0.2 to 4.3 nM. Besides, the inhibition of growth at 5 µM in series [1] (setting [8]) is -0.2%.

As to `CC(C)[C@H](O)C(=O)N[C@@H](C)C(=O)N[C@H]1C(=O)N(C)CCc2ccccc21` [Semagacestat (LY450139)], the IC50 at γ-secretase (Aβ38, read-out: IC50, γ-secretase, Aβ38) is 12 nM; at γ-secretase (Aβ40, read-out: IC50, γ-secretase, Aβ40), 12.1 nM; at γ-secretase (Aβ42, read-out: IC50, γ-secretase, Aβ42), 10.9 nM; in the series on Notch signaling it was 14.1 nM. Moreover, the inhibition of growth at 5 µM in [1] (setting [8]) was -9.8%.

Turning to `[Na+].[Na+].[Na+].[O]=[V]([O-])([O-])[O-]` [Sodium orthovanadate], the “Parasite inhibition (%) mean” value in [2] is given as 31.8%. The IC50 at (Na,K)-ATPase and at alkaline phosphatase was 10000 nM each time.

`Nc1cccc(-c2cc3c(Oc4cccc(O)c4)ncnc3[nH]2)c1` [TWS119]: the IC50 in the series with GSK-3β is 30 nM. In addition, the inhibition of growth at 5 µM in series [1] (setting [8]) was 40.8%.

For the compound Bacitracin zinc, in [2], the “Parasite inhibition (%) mean” value is 9.0%. Besides, the IC50 in [7] is 10000 nM.

A word on the IC50: it is the point on the concentration scale where inhibition reaches its midpoint. The term viability denotes a read-out of living cells in per cent, often relative to untreated cells. High values mean better survival, low ones a greater loss of cells. Broadly, the Ki is the equilibrium dissociation constant of an inhibitor or competing ligand from its target. Usually inhibition stands for the relative decrease from the control value, in per cent.
